Assay results from patent publication US20240390238A1, “MINIMALIST EMULSION COMPOSITIONS” (Baek Clinical Inc., priority 2021, published 2024).
Each block holds one compound with its values, some of them ahead of it.

Tests used:
[1] = Solubility of optional additional components in the solvents; format: physicochemical
Source text: Additional ingredients were chosen for their compatibility with (e.g., miscibility in) 1,3 propanediol, 1,2 propanediol, and 1,3 butanediol.

[2] = Description: A series of experiments were performed to assess and optimize the components of the subject vitamin C formulations. […] U refers to urea. % values are wt %
[3] = Comparative studies of prior-art ascorbic acid solutions; format: physicochemical; details: ascorbic acid with urea in propylene glycol, butylene glycol and propanediol
Description: This example was reproduced.
All mixtures were heated to 85° C.

[4] = system: erythema (skin redness); details: concentrations of 0.2%; clinical data from SEPPIC; cited from earlier work

Compound: COc1cc(CC(C(C)=O)C(C)=O)ccc1O [Acetyl zingerone]
Solubility in 1,3 propanediol, 1,2 propanediol and 1,3 butanediol ([1]; at the desired concentrations (0.5-1%)): readily soluble

Compound: O=C(O)CCCCCCCC(=O)O [AzA, Azelaic acid, reference compound]
Concentration solubilized in 1,3 propanediol [1]: up to 10%
Solubility in 1,3 propanediol in the presence of hydroxyethyl urea [1]: slightly increased
Concentration solubilized in a 1,3 propanediol base ([1]; with 10% AA, 5% U): 7.5%

Compound: CC1(C)[C@@H](O[C@H]2O[C@H](C(=O)O)[C@@H](O)[C@H](O)[C@H]2O[C@@H]2O[C@H](C(=O)O)[C@@H](O)[C@H](O)[C@H]2O)CC[C@]2(C)[C@H]3C(=O)C=C4[C@@H]5C[C@@](C)(C(=O)O)CC[C@]5(C)CC[C@@]4(C)[C@]3(C)CC[C@@H]12 [glycyrrhizic acid, Glycyrrhizic acid]
Solubility in 1,3-propanediol ([1]; unlike 18B-glycyrrhetinic acid): shows solubility

Now from value to compound, other results behind:

Minimum amount U required to solubilize 20% AA [2]: ~10%
Solubility of U in 1,3 propanediol (saturation reached before recrystallization of U) [2]: ~27.8%
Maximum concentrations soluble before urea starts to precipitate (the ceiling) [3]: 20%
Compound: NC(N)=O [urea]

Solubility in 1,3 propanediol, 1,2 propanediol and 1,3 butanediol ([1]; at a concentration of 0.2%): soluble
Compound: madecassoside
Erythema (skin redness) [4]: desirable ability to reduce erythema
